Experimental data reported in PubChem BioAssay AID330 (DTP/NCI, 2004).
Values joined by “and” are separate entries in the source; they are usually repeats but may differ in a detail not shown here. Equal values may be shown once. Toxic doses and inconclusive results are not listed.

Tested on: P388 leukemia ip, CD2F1 mice, survival T/C
Experiment: NCI In Vivo Anticancer Drug Screen. Data for tumor model P388 Leukemia (intraperitoneal) in CD2F1 (CDF1) mice
Settings: endpoint: median survival time, higher = longer survival
Procedure, shortened: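 Mice carrying the transplanted tumor received test compound or vehicle. Survival was recorded in each group, and the value is the treated-group measurement divided by that of the vehicle-treated control group.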

[1] = dose: 50.0 mg/kg/injection, schedule: Q01DX009 (ip), vehicle: saline
[2] = dose: 100.0 mg/kg/injection, schedule: Q01DX009 (ip), vehicle: saline
[3] = dose: 200.0 mg/kg/injection, schedule: Q01DX009 (ip), vehicle: saline
[4] = dose: 100.0 mg/kg/injection, schedule: Q01DX001 (ip), vehicle: saline with Tween-80
[5] = dose: 200.0 mg/kg/injection, schedule: Q01DX001 (ip), vehicle: saline with Tween-80
[6] = dose: 60.0 mg/kg/injection, schedule: Q01DX005 (ip), vehicle: saline with Tween-80
[7] = dose: 120.0 mg/kg/injection, schedule: Q01DX005 (ip), vehicle: saline with Tween-80
[8] = dose: 25.0 mg/kg/injection, schedule: Q01DX009 (ip), vehicle: saline
[9] = dose: 50.0 mg/kg/injection, schedule: Q04DX003 (ip), vehicle: Klucel (hydroxypropylcellulose) (HPC)
[10] = dose: 100.0 mg/kg/injection, schedule: Q04DX003 (ip), vehicle: Klucel (hydroxypropylcellulose) (HPC)
[11] = dose: 200.0 mg/kg/injection, schedule: Q04DX003 (ip), vehicle: Klucel (hydroxypropylcellulose) (HPC)
[12] = dose: 400.0 mg/kg/injection, schedule: Q04DX003 (ip), vehicle: Klucel (hydroxypropylcellulose) (HPC)
[13] = dose: 100.0 mg/kg/injection, schedule: Q04DX003 (ip), vehicle: saline with Tween-80
[14] = dose: 200.0 mg/kg/injection, schedule: Q04DX003 (ip), vehicle: saline with Tween-80
[15] = dose: 400.0 mg/kg/injection, schedule: Q04DX003 (ip), vehicle: saline with Tween-80
[16] = dose: 240.0 mg/kg/injection, schedule: Q01DX005 (ip), vehicle: saline with Tween-80
[17] = dose: 50.0 mg/kg/injection, schedule: Q01DX005 (ip), vehicle: Klucel (hydroxypropylcellulose) (HPC)
[18] = dose: 100.0 mg/kg/injection, schedule: Q01DX005 (ip), vehicle: Klucel (hydroxypropylcellulose) (HPC)
[19] = dose: 200.0 mg/kg/injection, schedule: Q01DX005 (ip), vehicle: Klucel (hydroxypropylcellulose) (HPC)

N#CC(C#N)=C1Sc2nc3ccc([N+](=O)[O-])cc3nc2S1
T/C [1]: 109 % of control | T/C [2]: 90 % of control | T/C [3]: 118 % of control

O=C1C=CC=C2C(=O)C(c3ccccc3)(c3ccccc3)[N+]([O-])=C12
T/C (dose: 50.0 mg/kg/injection, schedule: Q04DX002 (ip), vehicle: saline): 100 % of control | T/C (dose: 100.0 mg/kg/injection, schedule: Q04DX002 (ip), vehicle: saline): 98 % of control | T/C (dose: 200.0 mg/kg/injection, schedule: Q04DX002 (ip), vehicle: saline): 111 % of control

O=C(O)Cc1c[nH]c2c(Cl)ccc(Cl)c12
T/C [4]: 101 % of control | T/C [5]: 100 % of control

C=C1C(=O)C(CCCC)=C(CCC)C1O (configuration not stated)
T/C [6]: 100 % of control | T/C [7]: 107 % of control

COc1ccc(SS(=O)c2ccccc2)cc1 (configuration not stated)
T/C (dose: 100.0 mg/kg/injection, schedule: Q04DX002 (ip), vehicle: saline with Tween-80): 105 % of control | T/C (dose: 200.0 mg/kg/injection, schedule: Q04DX002 (ip), vehicle: saline with Tween-80): 111 % of control | T/C (dose: 400.0 mg/kg/injection, schedule: Q04DX002 (ip), vehicle: saline with Tween-80): 108 % of control

NNC(=O)c1ccc2ccccc2c1O
T/C [8]: 103 % of control | T/C [1]: 99 % of control | T/C [2]: 101 % of control | T/C [3]: 96 % of control

O=c1cc(-c2ccccc2)oc2c(O)c(O)cc(O)c12
T/C [9]: 105 % of control | T/C [10]: 104 % of control | T/C [11]: 100 % of control | T/C [12]: 92 % of control

O=S1(=O)C=C(Br)CO1
T/C [13]: 106 % of control | T/C [14]: 106 % of control | T/C [15]: 97 % of control

Clc1ccc(S[As](Sc2ccc(Cl)cc2)Sc2ccc(Cl)cc2)cc1
T/C (dose: 100.0 mg/kg/injection, schedule: Q04DX002 (ip), vehicle: Klucel (hydroxypropylcellulose) (HPC)): 121 % of control | T/C (dose: 200.0 mg/kg/injection, schedule: Q04DX002 (ip), vehicle: Klucel (hydroxypropylcellulose) (HPC)): 114 % of control | T/C (dose: 400.0 mg/kg/injection, schedule: Q04DX002 (ip), vehicle: Klucel (hydroxypropylcellulose) (HPC)): 113 % of control

Cc1ccc(CCNC(=O)c2c3nc4c(C(=O)NCCc5ccc(C)cc5)ccc(Br)c4oc-3c(Br)c(=O)c2N)cc1
T/C (dose: 50.0 mg/kg/injection, schedule: Q01DX005 (ip), vehicle: saline with Tween-80): 93 % of control | T/C (dose: 100.0 mg/kg/injection, schedule: Q01DX005 (ip), vehicle: saline with Tween-80): 86 % of control | T/C (dose: 200.0 mg/kg/injection, schedule: Q01DX005 (ip), vehicle: saline with Tween-80): 106 % of control

COC1N(C2CC(O)C(CO)O2)C(=O)NC(=O)C1(F)Br (configuration not stated)
T/C (dose: 178.0 mg/kg/injection, schedule: Q04DX003 (ip), vehicle: saline): 118 % of control

CCCCCCCC/C=C\CCCCCCCC(=O)O
T/C [9]: 104 % of control | T/C [10]: 103 % of control and 97 % of control | T/C [11]: 102 % of control and 93 % of control | T/C [12]: 92 % of control

CCC(/C=C/c1ccccc1)=N\NC(=O)c1ccc(Cl)c(Cl)c1
T/C [6]: 88 % of control and 89 % of control | T/C [7]: 88 % of control | T/C [16]: 92 % of control and 97 % of control

COC(=O)C1C2C1C1C=CC2n2c(=O)n(-c3ccccc3)c(=O)n21 (configuration not stated)
T/C [17]: 97 % of control | T/C [18]: 97 % of control | T/C [19]: 110 % of control

COc1ccc(-n2c(N)c(C#N)c3c(c2=S)CCC3)cc1
T/C (dose: 50.0 mg/kg/injection, schedule: Q01DX005 (ip), vehicle: Klucel + Tween-80): 106 % of control | T/C (dose: 100.0 mg/kg/injection, schedule: Q01DX005 (ip), vehicle: Klucel + Tween-80): 99 % of control | T/C (dose: 200.0 mg/kg/injection, schedule: Q01DX005 (ip), vehicle: Klucel + Tween-80): 92 % of control

COC(=O)C1C(C)C2CCCCC2CC1(C)O (configuration not stated)
T/C [10]: 103 % of control | T/C [11]: 112 % of control | T/C [12]: 100 % of control

Cc1ccc(N=Nc2ccc(N(CCCl)CCCl)cc2C)c(C(=O)O)c1
T/C (dose: 12.5 mg/kg/injection, schedule: Q01DX009 (ip), vehicle: saline with Tween-80): 153 % of control and 177 % of control | T/C (dose: 25.0 mg/kg/injection, schedule: Q01DX009 (ip), vehicle: saline with Tween-80): 123 % of control

O=C(O)CCCCCCC(=O)CCl
T/C (dose: 25.0 mg/kg/injection, schedule: Q04DX003 (ip), vehicle: saline): 110 % of control | T/C (dose: 50.0 mg/kg/injection, schedule: Q04DX003 (ip), vehicle: saline): 110 % of control | T/C (dose: 50.0 mg/kg/injection, schedule: Q04DX003 (ip), vehicle: suspension in saline): 119 % of control | T/C (dose: 100.0 mg/kg/injection, schedule: Q04DX003 (ip), vehicle: saline): 121 % of control | T/C (dose: 100.0 mg/kg/injection, schedule: Q04DX003 (ip), vehicle: suspension in saline): 116 % of control

CCOC(=O)CNC(C)c1ccc(F)cc1 (configuration not stated)
T/C (dose: 50.0 mg/kg/injection, schedule: Q01DX005 (ip), vehicle: saline): 100 % of control | T/C (dose: 100.0 mg/kg/injection, schedule: Q01DX005 (ip), vehicle: saline): 105 % of control | T/C (dose: 200.0 mg/kg/injection, schedule: Q01DX005 (ip), vehicle: saline): 103 % of control

CC(C)CC([NH-])C(=O)O.CC(C)CC([NH-])C(=O)O.CC(C)CC([NH-])C(=O)O.[Pr+3] (configuration not stated)
T/C [17]: 107 % of control | T/C [18]: 102 % of control | T/C [19]: 98 % of control

CCc1ccc(N=Cc2ccc(OC(=O)c3ccc(OC)cc3)c(OC)c2)cc1
T/C [6]: 96 % of control | T/C [7]: 94 % of control | T/C [16]: 92 % of control

O=C(Nc1ccccc1C(F)(F)F)N(CCO)C1CCCCC1
T/C [6]: 103 % of control | T/C [7]: 103 % of control | T/C [16]: 103 % of control

CC1COC2(CCC(=CBr)CC2)O1 (configuration not stated)
T/C (dose: 100.0 mg/kg/injection, schedule: Q01DX001 (ip), vehicle: Klucel (hydroxypropylcellulose) (HPC)): 96 % of control | T/C (dose: 200.0 mg/kg/injection, schedule: Q01DX001 (ip), vehicle: Klucel (hydroxypropylcellulose) (HPC)): 107 % of control | T/C (dose: 400.0 mg/kg/injection, schedule: Q01DX001 (ip), vehicle: Klucel (hydroxypropylcellulose) (HPC)): 100 % of control

CCNCc1c(C)[nH]c2ccc(N(C)C)cc2c1=O
T/C [1]: 92 % of control | T/C [2]: 108 % of control

COc1nc(=O)n(C2C=CC(=O)O2)cc1F (configuration not stated)
T/C (dose: 20.0 mg/kg/injection, schedule: Q01DX009 (ip), vehicle: saline): 158 % of control and 173 % of control | T/C (dose: 40.0 mg/kg/injection, schedule: Q01DX009 (ip), vehicle: saline): 174 % of control and 196 % of control | T/C (dose: 80.0 mg/kg/injection, schedule: Q01DX009 (ip), vehicle: saline): 102 % of control

CCCCc1cc(-c2ccc(C)cc2)c(CCCC)c2c1-c1cccc3cccc-2c13
T/C [13]: 98 % of control | T/C [14]: 91 % of control | T/C [15]: 92 % of control

O=C1C=CC(=O)C(N(CCO)CCO)=C1
T/C (dose: 12.5 mg/kg/injection, schedule: Q01DX009 (ip), vehicle: saline): 99 % of control | T/C (dose: 12.5 mg/kg/injection, schedule: Q01DX009 (ip), vehicle: suspension in saline): 100 % of control | T/C [8]: 94 % of control | T/C (dose: 25.0 mg/kg/injection, schedule: Q01DX009 (ip), vehicle: suspension in saline): 103 % of control | T/C [1]: 95 % of control | T/C (dose: 50.0 mg/kg/injection, schedule: Q01DX009 (ip), vehicle: suspension in saline): 113 % of control | T/C [2]: 95 % of control | T/C (dose: 100.0 mg/kg/injection, schedule: Q01DX009 (ip), vehicle: suspension in saline): 109 % of control and 111 % of control

C[C@]12CC[C@H](OC(=O)/C=C\c3ccc(N(CCCl)CCCl)cc3)CC1CC[C@@H]1C2CC[C@]2(C)NC(=O)CCC12 (some centres not stated)
T/C [4]: 100 % of control | T/C [5]: 100 % of control | T/C (dose: 400.0 mg/kg/injection, schedule: Q01DX001 (ip), vehicle: saline with Tween-80): 100 % of control

[N-]=[N+]=NCC(=O)N1c2ccccc2Sc2ccccc21
T/C (dose: 25.0 mg/kg/injection, schedule: Q01DX009 (ip), vehicle: other): 108 % of control | T/C (dose: 50.0 mg/kg/injection, schedule: Q01DX009 (ip), vehicle: other): 103 % of control | T/C (dose: 100.0 mg/kg/injection, schedule: Q01DX009 (ip), vehicle: other): 95 % of control | T/C (dose: 200.0 mg/kg/injection, schedule: Q01DX009 (ip), vehicle: other): 108 % of control
